This note sets out measurements from article PMC11203266, “Continuous evolution of compact protein degradation tags regulated by selective molecular glues” (Science (New York, N.Y.), 2024).

One assay concerns the target CRBN (Homo sapiens, UniProt Q96SW2). As to the kind of experiment: In-cell CRBN engagement NanoBRET. The conditions noted are these: for EC50: EC50 CRBN engagement. A general note: In BRET a luciferase serves as donor, and the signal depends on an acceptor being close.
The subject of another assay is PLK1-SD40. As to the kind of experiment: Immunoblot, endogenous SD40-tagged PLK1 in HEK293T cells. Particulars: 2 hours of treatment. The assay is classed as cell-based, human. The source says: Next, we evaluated the installation of SD40 at endogenous genomic target genes in mammalian cells using twin prime editing (twin PE) ([54], [75]). We optimized prime editing parameters, including spacer position and prime editor construct ([30]), to insert SD40 at the C-terminus of PLK1 with 26% editing efficiency and 8.8% indel byproducts in HEK293T cells (Fig. 3E, fig. S13), enabling rapid isolation of a homozygous PLK1-SD40 cell line. PLK1 is an essential cell-state regulator ([76]), and complete knockdown for 24 hours is cytotoxic. […] We also used twin prime editing to install SD40 at the N-terminus of BRD4 yielding 7.7% knock-in of SD40 in K562 cells (Fig. 3E, S13) with 4.3% indel byproducts. […] For comparison, we also attempted scarless insertion of SD40 and FKBP12^F36V from the dTag system (324 base pairs) ([17]) at the N-terminus of BRD4 using Cas9 nuclease-directed HDR using two different sgRNAs and a double-strand donor DNA template. […]
HEK293T or K562 cells were plated at a density of 1.6 x 10^5 cells/well in a 24-well plate coated with poly-D-lysine (Corning) in 1 mL media (DMEM + 10% FBS for HEK293T cells and RPMI + 10% FBS for K562 cells). […] Protein concentration in clarified lysates was quantified using Pierce BCA Protein Assay Kit (Thermo Scientific) according to the manufacturer’s protocol. […]
Background: In western blotting, separated proteins are transferred to a membrane and probed.

The target of the next assay is T1, TUB (Homo sapiens, UniProt P50607).
T1 construct: endogenous in cells; host or cells: HEK293T
T1 sequence (P50607 whole entry): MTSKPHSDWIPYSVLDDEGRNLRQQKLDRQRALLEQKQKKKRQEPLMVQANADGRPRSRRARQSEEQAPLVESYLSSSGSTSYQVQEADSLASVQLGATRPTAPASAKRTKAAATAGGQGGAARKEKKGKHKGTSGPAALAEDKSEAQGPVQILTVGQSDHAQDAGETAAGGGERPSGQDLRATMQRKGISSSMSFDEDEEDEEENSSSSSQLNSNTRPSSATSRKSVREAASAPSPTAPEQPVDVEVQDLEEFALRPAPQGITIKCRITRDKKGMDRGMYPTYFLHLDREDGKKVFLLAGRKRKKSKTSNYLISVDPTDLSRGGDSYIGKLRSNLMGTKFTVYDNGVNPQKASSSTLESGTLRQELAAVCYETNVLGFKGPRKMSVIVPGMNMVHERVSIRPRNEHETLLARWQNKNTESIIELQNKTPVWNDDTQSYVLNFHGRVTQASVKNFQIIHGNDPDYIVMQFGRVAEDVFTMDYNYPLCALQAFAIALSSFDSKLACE
The assay is described as follows: Western blot of TUB in HEK293T cells. Format: cell-based. Particulars: 100-10,000 nM. How it is done: HEK293T or K562 cells were plated at a density of 1.6 x 10^5 cells/well in a 24-well plate coated with poly-D-lysine (Corning) in 1 mL media (DMEM + 10% FBS for HEK293T cells and RPMI + 10% FBS for K562 cells). After 16–18 hrs, cells were treated with either DMSO or the indicated concentration of small molecules to a 0.5% final concentration of DMSO. Plates were incubated at 37 °C, 5% CO2 for 24 hours for all cell lines except endogenously tagged PLK1–SD40 HEK293T cells, which were incubated for 2 hours. Cells were washed with PBS and then lysed for 30 minutes at 4 °C in radioimmunoprecipitation assay (RIPA; 25 mM Tris-HCl, 150 mM NaCl, 1% NP-40, 1% sodium deoxycholate, 0.1% SDS, pH ~ 7.6) buffer containing 1 mM phenylmethylsulfonyl fluoride (PMSF; Sigma Aldrich) and 1 x EDTA-free protease inhibitor cocktail (Roche). Lysates were centrifuged for 20 min @18,000 x g to isolate the soluble fractions. Protein concentration in clarified lysates was quantified using Pierce BCA Protein Assay Kit (Thermo Scientific) according to the manufacturer’s protocol. Clarified lysates were mixed with NuPAGE LDS Sample Buffer (Thermo NP0007) containing 10 mM DTT and boiled for 10 minutes. Gel electrophoresis was performed on boiled samples using polyacrylamide gels (Invitrogen NP0329BOX) with equal amounts of total protein in each lane. […]
values were calculated using a Welch's t-test. […]

Chain of CRBN (Q96SW2 whole entry): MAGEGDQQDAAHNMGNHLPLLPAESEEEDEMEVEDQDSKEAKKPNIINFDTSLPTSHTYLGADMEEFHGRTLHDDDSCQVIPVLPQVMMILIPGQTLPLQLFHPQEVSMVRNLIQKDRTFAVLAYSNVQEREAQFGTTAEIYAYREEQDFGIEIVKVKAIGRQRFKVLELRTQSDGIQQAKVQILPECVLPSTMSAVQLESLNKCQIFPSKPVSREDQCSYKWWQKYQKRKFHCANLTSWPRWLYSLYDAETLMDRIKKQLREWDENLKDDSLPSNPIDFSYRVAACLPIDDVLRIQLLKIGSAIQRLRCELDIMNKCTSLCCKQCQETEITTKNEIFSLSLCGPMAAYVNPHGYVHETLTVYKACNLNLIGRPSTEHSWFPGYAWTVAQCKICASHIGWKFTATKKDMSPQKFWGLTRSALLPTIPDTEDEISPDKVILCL
Chain of CRBN (Q16531 whole entry partner): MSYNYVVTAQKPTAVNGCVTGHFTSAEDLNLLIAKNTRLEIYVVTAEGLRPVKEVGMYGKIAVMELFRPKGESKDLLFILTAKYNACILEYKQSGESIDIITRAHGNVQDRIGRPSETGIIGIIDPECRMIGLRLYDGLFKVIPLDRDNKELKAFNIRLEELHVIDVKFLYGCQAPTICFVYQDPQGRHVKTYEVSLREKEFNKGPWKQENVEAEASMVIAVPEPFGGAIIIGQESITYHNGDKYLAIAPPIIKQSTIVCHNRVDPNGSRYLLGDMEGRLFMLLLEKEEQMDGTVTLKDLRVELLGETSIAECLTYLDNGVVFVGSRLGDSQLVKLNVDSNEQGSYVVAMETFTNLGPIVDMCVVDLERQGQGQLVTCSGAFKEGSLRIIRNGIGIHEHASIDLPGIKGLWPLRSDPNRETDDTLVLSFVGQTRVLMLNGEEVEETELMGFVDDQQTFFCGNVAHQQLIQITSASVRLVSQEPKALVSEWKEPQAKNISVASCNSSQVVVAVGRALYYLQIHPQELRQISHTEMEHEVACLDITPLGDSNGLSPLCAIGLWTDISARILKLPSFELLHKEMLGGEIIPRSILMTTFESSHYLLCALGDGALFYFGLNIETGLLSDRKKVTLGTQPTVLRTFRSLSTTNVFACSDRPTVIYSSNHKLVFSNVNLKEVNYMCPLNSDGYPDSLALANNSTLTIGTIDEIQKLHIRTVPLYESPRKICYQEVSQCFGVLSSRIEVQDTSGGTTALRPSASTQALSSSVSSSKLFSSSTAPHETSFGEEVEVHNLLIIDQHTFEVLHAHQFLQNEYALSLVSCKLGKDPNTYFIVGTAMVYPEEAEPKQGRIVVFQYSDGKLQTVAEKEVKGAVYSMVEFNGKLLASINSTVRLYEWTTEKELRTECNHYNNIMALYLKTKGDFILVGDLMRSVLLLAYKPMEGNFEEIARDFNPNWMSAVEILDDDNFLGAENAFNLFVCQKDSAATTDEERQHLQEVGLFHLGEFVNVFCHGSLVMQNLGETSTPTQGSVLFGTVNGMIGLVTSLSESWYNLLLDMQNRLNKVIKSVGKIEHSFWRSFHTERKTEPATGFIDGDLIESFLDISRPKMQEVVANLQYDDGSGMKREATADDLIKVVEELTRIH
Protocol for CRBN: U2OS or HEK293T cells were transfected with a combination of NanoLuc-CRBN fusion vector (1 μg/ 100,000 cells) and DDB1 expression vector (4 μg/ 100,000 cells) encoded plasmid (Promega N2910) using Lipofectamine 3000 reagent (Thermo Fischer Scientific, L3000015). […] The transfected cells were washed with PBS, trypsinized, and plated in a 384-well white microplate (Corning, 3765) at 3000 cells in 34 μL Opti-MEM I reduced serum medium per well. […] The plates were incubated for 1 hour at 37 °C, 5% CO2. After incubation plates were brought to room temperature and incubated with 3X complete substrate plus inhibitor solution (20 μL) for 3 minutes at room temperature before measuring BRET signal on an EnVision multilabel plate reader with EnVision Manager 1.13 (PerkinElmer). At each liquid handling step, the plates were shaken on a Thermo Fisher combi instrument followed by centrifugation at 100 xg for 1 minute.
Lipofectamine 2000 was used in place of lipofectamine 3000 for all transfections, 1 μg of pSD192A was included for generating the SD40-PRKRA overexpression sample, and the assay was performed using 2,500 cells per well.
NanoBRET values for the in-cell CRBN engagement assay were calculated as follows:
2) mean corrected NanoBRET ratio mBU = Mean mBU experimental − Mean mBU no-ligand control.
EC50 values were calculated in GraphPad Prism (v9.5.1), using an inhibitor vs. response variable slope (four parameter) model.

Usually EC50 stands for the concentration needed to bring the measured effect to its halfway point. Higher therefore signals lower potency in that assay. Consider `O=C1CCC(N2C(=O)c3ccc(N4CCOCC4)cc3C2=O)C(=O)N1` (stereo not shown) [PT-179], for which the EC50 at CRBN (HEK293T cells) stood at 2880 nM; on CRBN (HEK293T cells, No SD40 (fig. S16 protocol)), 641 nM; on CRBN (HEK293T cells, SD40–PRKRA low expression (single-copy lentiviral integration)), 350 nM; at CRBN (HEK293T cells, SD40–PRKRA overexpression (plasmid transfection)), 169 nM; on CRBN (U2OS cells), 979 nM. Also, at CRBN (HEK293T and U2OS cells), the “lower apparent potency than pomalidomide” value is 7 fold. Further, the “increase in apparent affinity for CRBN” value amounted to 3.8 fold on CRBN (HEK293T cells overexpressing SD40–PRKRA) and 1.8 fold on CRBN (HEK293T cells stably expressing SD40–PRKRA). Moreover, the “PLK1 knockdown (in words)” value with PLK1-SD40 is on record as “robust PLK1 knockdown”. Besides, the “TUB degradation (in words)” value on TUB is on record as “does not degrade TUB”.
